Biological target: activated ERK2 (Homo sapiens (Human), UniProt P28482)
Assay: Activated ERK2 (20 pM) Kinase Assay (AlphaScreen, ERKtide phosphorylation)
Assay type: biochemical
Settings: 0.02 nM ERK2, 400 nM ERKtide peptide, 35 μM ATP, 30 min preincubation
Outline: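 Activated human ERK2 (0.02 nM) preincubated 30 min with compounds, then 400 nM ERKtide and 35 μM ATP added for 4 h at ambient temperature in HEPES pH 7.5, MgCl2, DTT, Tween-20, BSA. EDTA stop; phospho-peptide read by AlphaScreen after overnight dark incubation; four-parameter IC50.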

activated ERK2, sequence (P28482 whole entry): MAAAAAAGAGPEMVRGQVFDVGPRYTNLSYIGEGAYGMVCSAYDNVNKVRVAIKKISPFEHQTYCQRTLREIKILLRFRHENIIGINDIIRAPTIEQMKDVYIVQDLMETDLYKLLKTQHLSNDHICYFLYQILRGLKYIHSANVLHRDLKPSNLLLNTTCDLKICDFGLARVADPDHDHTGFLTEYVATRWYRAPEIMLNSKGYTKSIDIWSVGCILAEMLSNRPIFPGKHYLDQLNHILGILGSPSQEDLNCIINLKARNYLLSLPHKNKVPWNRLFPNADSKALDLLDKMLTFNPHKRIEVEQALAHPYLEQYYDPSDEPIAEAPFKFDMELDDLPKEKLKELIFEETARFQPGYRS

Row | Structure (SMILES) | IC50 [nM]
1 | CNC[C@@H](NC(=O)c1ccc(-c2nc(C3CCOCC3)cnc2N)cc1F)c1cccc(Br)c1 [Example 380, (S)-4-(3-amino-6-(tetrahydro-2H-pyran-4-yl)pyrazin-2-yl)-N-(1-(3-bromophenyl)-2-(methylamino)ethyl)-2-fluorobenzamide] | 0.0097
2 | NC[C@@H](NC(=O)c1ccc(-c2nc(C3CCCCC3)cnc2N)cc1F)c1cccc(Cl)c1 [Example 228, (S)-N-(2-amino-1-(3-chlorophenyl)ethyl)-4-(3-amino-6-cyclohexylpyrazin-2-yl)-2-fluorobenzamide] | 0.0505
3 | COC(=O)NC[C@@H](NC(=O)c1ccc(-c2nc(C3CCOCC3)cnc2N)cc1F)c1cccc(Cl)c1 [Example 407, (S)-methyl (2-(4-(3-amino-6-(tetrahydro-2H-pyran-4-yl)pyrazin-2-yl)-2-fluoro-benzamido)-2-(3-chlorophenyl)ethyl)carbamate] | 0.333
4 | NC[C@@H](NC(=O)c1ccc(-c2nc(C3CCOCC3)cnc2N)cc1F)c1cc(F)cc(Br)c1 [Example 180, (S)—N-(2-amino-1-(3-bromo-5-fluorophenyl)ethyl)-4-(3-amino-6-(tetrahydro-2H-pyran-4-yl)pyrazin-2-yl)-2-fluorobenzamide] | 0.00671
5 | CN1C[C@H](NC(=O)c2ccc(-c3cc(-c4cnn(C)c4)cnc3N)cc2F)[C@@H](c2ccc(Cl)c(F)c2)C1 (stereo in doubt) [Example 210, trans-4-(2-amino-5-(1-methyl-1H-pyrazol-4-yl)pyridin-3-yl)-N-((3R,45)-4-(4-chloro-3-fluorophenyl)-1-methylpyrrolidin-3-yl)-2-fluorobenzamide] | 10300
6 | Cc1c(-c2cnc(N)c(-c3ccc(C(=O)N[C@H](CO)c4cc(F)cc(C(F)F)c4)c(F)c3)c2)cnn1C [Example 271, (S)-4-(2-amino-5-(1,5-dimethyl-1H-pyrazol-4-yl)pyridin-3-yl)-N-(1-(3-(difluoromethyl)-5-fluorophenyl)-2-hydroxyethyl)-2-fluorobenzamide] | 0.0308
7 | C[C@@H](O)[C@@H](NC(=O)c1ccc(-c2nc([C@H]3CC[C@H](O)CC3)cnc2N)cc1F)c1cccc(Cl)c1 [Example 398, 4-(3-amino-6-((1r,4S)-4-hydroxy-cyclohexyl)pyrazin-2-yl)-N-((1S,2R)-1-(3-chlorophenyl)-2-hydroxypropyl)-2-fluorobenzamide] | 0.281
8 | NC[C@@H](NC(=O)c1ccc(-c2nc(C3CCOCC3)cnc2N)cc1F)c1cccc(Cl)c1 [Example 174, (S)—N-(2-amino-1-(3-chlorophenyl)ethyl)-4-(3-amino-6-(tetrahydro-2H-pyran-4-yl)pyrazin-2-yl)-2-fluorobenzamide] | 0.021
9 | Nc1ncc(C2CCOCC2)nc1-c1ccc(C(=O)N[C@H](CO)c2cc(F)cc(C(F)F)c2)c(F)c1 [Example 335, (S)-4-(3-amino-6-(tetrahydro-2H-pyran-4-yl)pyrazin-2-yl)-N-(1-(3-(difluoromethyl)-5-fluorophenyl)-2-hydroxyethyl)-2-fluorobenzamide] | 0.0208
10 | CSc1cc(F)cc([C@@H](CO)NC(=O)c2ccc(-c3cc(-c4cn(C)nc4C)cnc3N)cc2F)c1 [Example 394, (S)-4-(2-amino-5-(1,3-dimethyl-1H-pyrazol-4-yl)pyridin-3-yl)-2-fluoro-N-(1-(3-fluoro-5-(methylthio)phenyl)-2-hydroxyethyl) benzamide] | 0.0153
11 | Nc1ncc([C@H]2CC[C@H](O)[C@@H](F)C2)nc1-c1ccc(C(=O)N[C@H](CO)c2cc(F)cc(I)c2)c(F)c1 [Example 189, 4-(3-amino-6-((1S,3S,4S)-3-fluoro-4-hydroxycyclohexyl)pyrazin-2-yl)-2-fluoro-N—((S)-1-(3-fluoro-5-iodophenyl)-2-hydroxyethyl)benzamide] | 0.0139
12 | Nc1ncc(C2CCCC(O)C2)nc1-c1ccc(C(=O)N[C@H](CO)c2cccc(Cl)c2)c(F)c1 (single isomer, unassigned) [Example 393] | 0.0752
13 | Cc1c(-c2cnc(N)c(-c3ccc(C(=O)N[C@H](CO)c4cccc(CF)c4)c(F)c3)c2)cnn1C(F)F [Example 260, (S)-4-(2-amino-5-(1-(difluoromethyl)-5-methyl-1H-pyrazol-4-yl)pyridin-3-yl)-2-fluoro-N-(1-(3-(fluoromethyl)phenyl)-2-hydroxyethyl) benzamide] | 0.0208
14 | CNC[C@@H](NC(=O)c1ccc(-c2nc([C@H]3CC[C@H](OC)CC3)cnc2N)cc1F)c1cc(F)cc(Br)c1 [Example 374, 4-(3-amino-6-((1r,4S)-4-methoxy-cyclohexyl)pyrazin-2-yl)-N-((S)-1-(3-bromo-5-fluorophenyl)-2-(methylamino)ethyl)-2-fluorobenzamide] | 0.0205
15 | Cc1c(-c2cnc(N)c(-c3ccc(C(=O)N[C@H](CO)c4cccc(Cl)c4)c(F)c3)c2)cnn1C(F)F [Example 264, (S)-4-(2-amino-5-(1-(difluoromethyl)-5-methyl-1H-pyrazol-4-yl)pyridin-3-yl)-N-(1-(3-chlorophenyl)-2-hydroxyethyl)-2-fluorobenzamide] | 0.0431
16 | Nc1ncc([C@H]2CC[C@H](O)[C@@H](O)C2)nc1-c1ccc(C(=O)N[C@H](CO)c2cc(F)cc(I)c2)c(F)c1 [Example 463, 4-(3-amino-6-((1S,3S,4S)-3,4-dihydroxy-cyclohexyl)pyrazin-2-yl)-2-fluoro-N-((S)-1-(3-fluoro-5-iodophenyl)-2-hydroxyethyl) benzamide] | 0.0055
17 | Nc1ncc([C@H]2CC[C@@H](O)CC2)nc1-c1ccc(C(=O)N[C@H](CO)c2cc(F)cc(CF)c2)c(F)c1 [Example 178, 4-(3-amino-6-((1s,4R)-4-hydroxycyclohexyl)pyrazin-2-yl)-2-fluoro-N—((S)-1-(3-fluoro-5-(fluoromethyl)phenyl)-2-hydroxyethyl)benzamide] | 0.211
18 | Nc1ncc([C@H]2CC[C@H](O)CC2)nc1-c1ccc(C(=O)N[C@H]2C[C@@H]2c2ccccc2)c(F)c1 [Example 202, 4-(3-amino-6-((1r,4S)-4-hydroxycyclohexyl)pyrazin-2-yl)-2-fluoro-N-((1S,2R)-2-phenylcyclopropyl)benzamide] | 0.152
19 | Nc1ncc(C(=O)N2CCOCC2)cc1-c1ccc(C(=O)N[C@H](CO)c2cc(F)cc(Br)c2)c(F)c1 [Example 474, (S)-4-(2-amino-5-(morpholine-4-carbonyl)pyridin-3-yl)-N-(1-(3-bromo-5-fluorophenyl)-2-hydroxyethyl)-2-fluorobenzamide] | 1.56
20 | Cc1nn(C)cc1-c1cnc(N)c(-c2ccc(C(=O)N[C@H](CO)c3cccc(CF)c3)c(F)c2)c1 [Example 255, (S)-4-(2-amino-5-(1,3-dimethyl-1H-pyrazol-4-yl)pyridin-3-yl)-2-fluoro-N-(1-(3-(fluoromethyl)phenyl)-2-hydroxyethyl) benzamide] | 0.0287
21 | Cc1nn(C)cc1-c1cnc(N)c(-c2ccc(C(=O)N[C@H](CO)c3cccc(C(F)F)c3)c(F)c2)c1 [Example 277, (S)-4-(2-amino-5-(1,3-dimethyl-1H-pyrazol-4-yl)pyridin-3-yl)-N-(1-(3-(difluoromethyl)phenyl)-2-hydroxyethyl)-2-fluorobenzamide] | 0.0707
22 | Nc1ncc([C@H]2CC[C@H](O)[C@@H](F)C2)nc1-c1ccc(C(=O)N[C@H](CO)c2cc(F)cc(Br)c2)c(F)c1 [Example 182, 4-(3-amino-6-((1S,3S,4S)-3-fluoro-4-hydroxycyclohexyl)pyrazin-2-yl)-N—((S)-1-(3-bromo-5-fluorophenyl)-2-hydroxyethyl)-2-fluorobenzamide] | 0.051
23 | Nc1ncc([C@@H]2CC[C@@H](O)[C@@H](F)C2)nc1-c1ccc(C(=O)N[C@H](CO)c2cc(F)cc(Br)c2)c(F)c1 [Example 187, 4-(3-amino-6-((1R,3S,4R)-3-fluoro-4-hydroxycyclohexyl)pyrazin-2-yl)-N—((S)-1-(3-bromo-5-fluorophenyl)-2-hydroxyethyl)-2-fluorobenzamide] | 0.0363
24 | C[C@]1(O)CC[C@H](c2cnc(N)c(-c3ccc(C(=O)N[C@H](CO)c4cccc(Cl)c4)c(F)c3)n2)CC1 [Example 106, 4-(3-amino-6-((1r,4S)-4-hydroxy-4-methylcyclohexyl)pyrazin-2-yl)-N-((S)-1-(3-chlorophenyl)-2-hydroxyethyl)-2-fluorobenzamide] | 1.28
25 | CNC[C@@H](NC(=O)c1ccc(-c2nc(C3CCOCC3)cnc2N)cc1F)c1cccc(Cl)c1 [Example 176, (S)-4-(3-amino-6-(tetrahydro-2H-pyran-4-yl)pyrazin-2-yl)-N-(1-(3-chlorophenyl)-2-(methylamino)ethyl)-2-fluorobenzamide] | 0.0282
26 | Nc1ncc(C2CCOCC2)nc1-c1ccc(C(=O)N[C@H](CO)c2cccc(CF)c2)c(F)c1 [Example 257, (S)-4-(3-amino-6-(tetrahydro-2H-pyran-4-yl)pyrazin-2-yl)-2-fluoro-N-(1-(3-(fluoromethyl)phenyl)-2-hydroxyethyl) benzamide] | 0.0197
27 | Nc1ncc([C@H]2CC[C@H](F)CC2)nc1-c1ccc(C(=O)N[C@H](CO)c2cccc(Cl)c2)c(F)c1 [Example 449, 4-(3-amino-6-((1r,4S)-4-fluorocyclohexyl)pyrazin-2-yl)-N-((S)-1-(3-chlorophenyl)-2-hydroxyethyl)-2-fluorobenzamide] | 0.184
28 | NC[C@@H](NC(=O)c1ccc(-c2nc(C3CCCC(O)C3)cnc2N)cc1F)c1cccc(Cl)c1 (single isomer, unassigned) [Example 367] | 0.15
29 | Cc1c(-c2cnc(N)c(-c3ccc(C(=O)N[C@H](CO)c4cccc(C(F)F)c4)c(F)c3)c2)cnn1C [Example 276, (S)-4-(2-amino-5-(1,5-dimethyl-1H-pyrazol-4-yl)pyridin-3-yl)-N-(1-(3-(difluoromethyl)phenyl)-2-hydroxyethyl)-2-fluorobenzamide] | 0.0371
30 | Cc1c(-c2cnc(N)c(-c3ccc(C(=O)N[C@H](CO)c4cccc(CF)c4)c(F)c3)c2)cnn1C [Example 256, (S)-4-(2-amino-5-(1,5-dimethyl-1H-pyrazol-4-yl)pyridin-3-yl)-2-fluoro-N-(1-(3-(fluoromethyl)phenyl)-2-hydroxyethyl) benzamide] | 0.0258

From patent US9242996B2 (Novartis AG, priority 2013, dated 2016)
